Here are results for ten compounds from patent US11771738B2 (Zoetis Services LLC, priority 2018, dated 2023).

Where two headings read alike, the source gives them in different places.

Type in all cases: cell-based
Test [1] has as its system third stage larvae of Haemonchus contortus. The test can be described thus: Haemonchus contortus, Larvae Stage 3 (HcL3) In Vitro Assay. To be noted: Haemonchus contortus, 96 h.
The test system of test [2] is microfilariae of Dirofilaria immitis. The test can be described thus: Dirofilaria immitis, Microfilaria (DiMf) In Vitro Assay. Particulars: Dirofilaria immitis, 72 h, read-out: DiMf MED, Minimum Effective Dose, D. immitis microfilariae motility, in vitro.
For another test, the system named is D. immitis L4 larvae. As to the kind of experiment: Dirofilaria immitis, L4 Stage (DiL4) In Vitro Assay. Particulars: for minimal effective concentration: Dirofilaria immitis, 72 h, read-out: DiL4 MED, Minimum Effective Dose, D. immitis L4 larvae motility, in vitro; for DiMf/DiL4: larval stage selectivity, ratio of DiMf MED to DiL4 MED.
The mark [3] stands for this setting: read-out: HcL3 MED, Minimum Effective Dose, H. contortus third stage larvae, approximately 96 hours.
[4] abbreviates: read-out: HcL3 MED, Haemonchus contortus third stage larvae in vitro, class mark appended to the Ex # in Table 3.
[5] abbreviates: read-out: HcL3 MED, approximately 96 hours incubation, multiple-resistant field isolate.

On to `CC(C)C[C@H]1C(=O)O[C@H](Cc2ccc(Cc3ccc(C(F)F)nc3)cc2)C(=O)N(C)[C@@H](CC(C)C)C(=O)O[C@H](C)C(=O)N(C)[C@@H](CC(C)C)C(=O)O[C@H](Cc2ccc(Cc3ccc(C(F)F)nc3)cc2)C(=O)N(C)[C@@H](CC(C)C)C(=O)O[C@H](C)C(=O)N1C` [Example 3-287, (3S,6R,9S,12R,15S,18R,21S,24R)-6,18-bis(4-((6-(difluoromethyl)pyridin-3-yl)methyl)benzyl)-3,9,15,21-tetraisobutyl-4,10,12,16,22,24-hexamethyl-1,7,13,19-tetraoxa-4,10,16,22-tetraazacyclotetracosan-2,5,8,11,14,17,20,23-octaone], for which the minimal effective concentration is greater than 10 µM in test [1] (setting [3]), 0.05 µM in test [2] and 0.0005 µM in the test with D. immitis L4 larvae. For the same compound, the DiMf/DiL4 with D. immitis L4 larvae came to 100.

As for `CC(C)C[C@H]1C(=O)O[C@H](Cc2ccc(Cc3cncnc3C3CC3)cc2)C(=O)N(C)[C@@H](CC(C)C)C(=O)O[C@H](C)C(=O)N(C)[C@@H](CC(C)C)C(=O)O[C@H](Cc2ccc(Cc3cncnc3C3CC3)cc2)C(=O)N(C)[C@@H](CC(C)C)C(=O)O[C@H](C)C(=O)N1C` [Example 3-289, (3S,6R,9S,12R,15S,18R,21S,24R)-6,18-bis(4-((4-cyclopropylpyrimidin-5-yl)methyl)benzyl)-3,9,15,21-tetraisobutyl-4,10,12,16,22,24-hexamethyl-1,7,13,19-tetraoxa-4,10,16,22-tetraazacyclotetracosan-2,5,8,11,14,17,20,23-octaone], the minimal effective concentration was 1 to 3.3 µM in test [1] (setting [4]), 3.3 µM in test [1] (setting [3]), 0.003 µM in test [2] and 0.0005 µM with D. immitis L4 larvae. For the same compound, the DiMf/DiL4 in the test on D. immitis L4 larvae came out at 6.

For `CC(C)C[C@H]1C(=O)O[C@H](Cc2ccc(Cc3cccnc3C(F)F)cc2)C(=O)N(C)[C@@H](CC(C)C)C(=O)O[C@H](C)C(=O)N(C)[C@@H](CC(C)C)C(=O)O[C@H](Cc2ccc(Cc3cccnc3C(F)F)cc2)C(=O)N(C)[C@@H](CC(C)C)C(=O)O[C@H](C)C(=O)N1C` [Example 3-290, (3S,6R,9S,12R,15S,18R,21S,24R)-6,18-bis[[4-[[2-(difluoromethyl)-3-pyridyl]methyl]phenyl]methyl]-3,9,15,21-tetraisobutyl-4,10,12,16,22,24-hexamethyl-1,7,13,19-tetraoxa-4,10,16,22-tetrazacyclotetracosane-2,5,8,11,14,17,20,23-octaone], the minimal effective concentration is less than 1 µM in test [1] (setting [4]); 0.2 µM in test [1] (setting [3]); no more than 1 µM in test [1] (setting [5]); 0.0003 µM in test [2]; 0.0001 µM with D. immitis L4 larvae. Further, the DiMf/DiL4 with D. immitis L4 larvae is 3.

As for `CC(C)C[C@H]1C(=O)O[C@H](Cc2ccc([C@@H](C)c3nccs3)cc2)C(=O)N(C)[C@@H](CC(C)C)C(=O)O[C@H](C)C(=O)N(C)[C@@H](CC(C)C)C(=O)O[C@H](Cc2ccc([C@@H](C)c3nccs3)cc2)C(=O)N(C)[C@@H](CC(C)C)C(=O)O[C@H](C)C(=O)N1C` [Example 3-291, (3S,6R,9S,12R,15S,18R,21S,24R)-3,9,15,21-tetraisobutyl-4,6,10,16,18,22-hexamethyl-12,24-bis(4-((R)-1-(thiazol-2-yl)ethyl)benzyl)-1,7,13,19-tetraoxa-4,10,16,22-tetraazacyclotetracosan-2,5,8,11,14,17,20,23-octaone], the minimal effective concentration in test [1] (setting [4]) was less than 1 µM; in test [1] (setting [3]), 0.3 µM; in test [1] (setting [5]), no more than 1 µM; in test [2], 0.0003 µM; with D. immitis L4 larvae, 0.0001 µM. For the same compound, the DiMf/DiL4 with D. immitis L4 larvae was 3.

Regarding `CC(C)C[C@H]1C(=O)O[C@H](Cc2ccc(Cc3ccnc(N4CCOCC4)c3)cc2)C(=O)N(C)[C@@H](CC(C)C)C(=O)O[C@H](C)C(=O)N(C)[C@@H](CC(C)C)C(=O)O[C@H](Cc2ccc(Cc3ccnc(N4CCOCC4)c3)cc2)C(=O)N(C)[C@@H](CC(C)C)C(=O)O[C@H](C)C(=O)N1C` [Example 3-292, (3S,6R,9S,12R,15S,18R,21S,24R)-3,9,15,21-tetraisobutyl-4,6,10,16,18,22-hexamethyl-12,24-bis(4-((2-morpholinopyridin-4-yl)methyl)benzyl)-1,7,13,19-tetraoxa-4,10,16,22-tetraazacyclotetracosan-2,5,8,11,14,17,20,23-octaone], the minimal effective concentration in test [1] (setting [4]) was 1 to 3.3 µM; in test [1] (setting [3]) it was 1.8 µM; in test [2], 0.001 µM; in the test with D. immitis L4 larvae it was 0.0003 µM. Also, the DiMf/DiL4 with D. immitis L4 larvae stood at 3.3.

With `COc1ncc(F)cc1Cc1ccc(C[C@H]2OC(=O)[C@H](CC(C)C)N(C)C(=O)[C@@H](C)OC(=O)[C@H](CC(C)C)N(C)C(=O)[C@@H](Cc3ccc(Cc4cc(F)cnc4OC)cc3)OC(=O)[C@H](CC(C)C)N(C)C(=O)[C@@H](C)OC(=O)[C@H](CC(C)C)N(C)C2=O)cc1` [Example 3-293, (3S,6R,9S,12R,15S,18R,21S,24R)-6,18-bis(4-((5-fluoro-2-methoxypyridin-3-yl)methyl)benzyl)-3,9,15,21-tetraisobutyl-4,10,12,16,22,24-hexamethyl-1,7,13,19-tetraoxa-4,10,16,22-tetraazacyclotetracosan-2,5,8,11,14,17,20,23-octaone], the figures for the minimal effective concentration (in test [1] (setting [3]); in test [2]; in the test on D. immitis L4 larvae) were 5.7 µM, 0.05 µM and 0.0003 µM, respectively. Also, the DiMf/DiL4 with D. immitis L4 larvae is 167.

`Cc1ncncc1Cc1ccc(C[C@H]2OC(=O)[C@H](CC(C)C)N(C)C(=O)[C@@H](C)OC(=O)[C@H](CC(C)C)N(C)C(=O)[C@@H](Cc3ccc(Cc4cncnc4C)cc3)OC(=O)[C@H](CC(C)C)N(C)C(=O)[C@@H](C)OC(=O)[C@H](CC(C)C)N(C)C2=O)cc1` [Example 3-294, (3S,6R,9S,12R,15S,18R,21S,24R)-3,9,15,21-tetraisobutyl-4,6,10,16,18,22-hexamethyl-12,24-bis(4-((4-methylpyrimidin-5-yl)methyl)benzyl)-1,7,13,19-tetraoxa-4,10,16,22-tetraazacyclotetracosan-2,5,8,11,14,17,20,23-octaone]: the minimal effective concentration in test [1] (setting [4]) is less than 1 µM; in test [1] (setting [3]), 1 µM; in test [1] (setting [5]) it was no more than 1 µM; in test [2], 0.0001 µM; with D. immitis L4 larvae, 0.0001 µM. In the test on D. immitis L4 larvae, the DiMf/DiL4 amounted to 1.

On to `CC(C)C[C@H]1C(=O)O[C@H](Cc2ccc(Cc3cnccc3C(F)F)cc2)C(=O)N(C)[C@@H](CC(C)C)C(=O)O[C@H](C)C(=O)N(C)[C@@H](CC(C)C)C(=O)O[C@H](Cc2ccc(Cc3cnccc3C(F)F)cc2)C(=O)N(C)[C@@H](CC(C)C)C(=O)O[C@H](C)C(=O)N1C` [Example 3-295, (3S,6R,9S,12R,15S,18R,21S,24R)-6,18-bis(4-((4-(difluoromethyl)pyridin-3-yl)methyl)benzyl)-3,9,15,21-tetraisobutyl-4,10,12,16,22,24-hexamethyl-1,7,13,19-tetraoxa-4,10,16,22-tetraazacyclotetracosan-2,5,8,11,14,17,20,23-octaone], for which the minimal effective concentration in test [1] (setting [4]) is 1 to 3.3 µM; in test [1] (setting [3]), 1.8 µM; in test [2] it was 0.005 µM; with D. immitis L4 larvae it was 0.0003 µM. Besides, the DiMf/DiL4 with D. immitis L4 larvae amounted to 16.7.

For the compound `CC(C)C[C@H]1C(=O)O[C@H](Cc2ccc(Cc3cccnc3C3CC3)cc2)C(=O)N(C)[C@@H](CC(C)C)C(=O)O[C@H](C)C(=O)N(C)[C@@H](CC(C)C)C(=O)O[C@H](Cc2ccc(Cc3cccnc3C3CC3)cc2)C(=O)N(C)[C@@H](CC(C)C)C(=O)O[C@H](C)C(=O)N1C` [Example 3-296, (3S,6R,9S,12R,15S,18R,21S,24R)-6,18-bis(4-((2-cyclopropylpyridin-3-yl)methyl)benzyl)-3,9,15,21-tetraisobutyl-4,10,12,16,22,24-hexamethyl-1,7,13,19-tetraoxa-4,10,16,22-tetraazacyclotetracosan-2,5,8,11,14,17,20,23-octaone], the minimal effective concentration in test [1] (setting [4]) is 1 to 3.3 µM; in test [1] (setting [3]) it was 1.8 µM; in test [2] it was 0.03 µM; in the test with D. immitis L4 larvae, 0.0005 µM. For the same compound, the DiMf/DiL4 with D. immitis L4 larvae is 60.

On to `CC(C)C[C@H]1C(=O)O[C@H](Cc2ccc(Cc3cccnc3OC(F)F)cc2)C(=O)N(C)[C@@H](CC(C)C)C(=O)O[C@H](C)C(=O)N(C)[C@@H](CC(C)C)C(=O)O[C@H](Cc2ccc(Cc3cccnc3OC(F)F)cc2)C(=O)N(C)[C@@H](CC(C)C)C(=O)O[C@H](C)C(=O)N1C` [Example 3-297, (3S,6R,9S,12R,15S,18R,21S,24R)-6,18-bis(4-((2-(difluoromethoxy)pyridin-3-yl)methyl)benzyl)-3,9,15,21-tetraisobutyl-4,10,12,16,22,24-hexamethyl-1,7,13,19-tetraoxa-4,10,16,22-tetraazacyclotetracosan-2,5,8,11,14,17,20,23-octaone], for which the minimal effective concentration in test [1] (setting [3]) was greater than 10 µM; in test [2] it was 0.03 µM; with D. immitis L4 larvae it was 0.001 µM. The DiMf/DiL4 in the test on D. immitis L4 larvae was 30.
